Data taken from US20120165326A1, “DERIVATIVES OF 6-(6-SUBSTITUTED-TRIAZOLOPYRIDAZINE-SULFANYL) 5-FLUORO BENZOTHIAZOLES AND 5-FLUORO BENZIMIDAZOLES, PREPARATION THEREOF, USE THEREOF AS DRUGS, AND USE THEREOF AS MET INHIBITORS” (SANOFI, priority 2009, published 2012).

Experiments:
MET [1] = target: T1, MET (Homo sapiens, UniProt P08581); test: Test B: Inhibition of autophosphorylation of MET; ELISA technique (pppY1230,1234,1235) in MKN45 cells; format: cell-based; design: Inoculated MKN45 cells in 96-well plates; endogenous in cells; host or cells: MKN45 cells; settings: 1 hour treatment, phosphoMET ELISA
Method: B) Test B: Inhibition of autophosphorylation of MET; ELISA technique (pppY1230,1234,1235)
a) Cell lysates: Inoculated MKN45 cells in 96-well plates (Cell coat BD polylysine) to a rate of 20 000 cells/well in 200 μl in RPMI medium+10% FCS+1% L-glutamine. Leave to adhere for 24 hours in an incubator.
The cells are treated the day after inoculation with the products at six concentrations in duplicate for 1 hour. At least three control wells are treated with the same amount of final DMSO.
Product dilution: Stock at 10 mM in pure DMSO—range from 10 mM to 30 μM with an increment of 3 in pure DMSO—Intermediate 50-fold dilutions in the culture medium, followed by removal of 10 μl added directly to the cells (200 μl): final range from 10 000 to 30 nM.
At the end of incubation, delicately remove the supernatant and rinse with 200 μl of PBS. Next, place 100 μl of lysis buffer directly in the wells on ice and incubate at 4° C. for 30 minutes. Lysis buffer: 10 mM Tris-HCl pH 7.4, 100 mM NaCl, 1 mM EDTA, 1 mM EGTA, 1% Triton X-100, 10% glycerol, 0.1% SDS, 0.5% deoxycholate, 20 mM NaF, 2 mM Na3VO4, 1 mM PMSF and anti-protease cocktail.
The 100 μl of lysates are transferred into a V-bottomed polypropylene plate and ELISA is performed directly or the plate is frozen at −80° C.,
b) ELISA PhosphoMET SicSource Kit KH00281
Add 70 μl of kit dilution buffer+30 μL of cell lysates or 30 μl of lysis buffer for the blanks to each well of the kit plate. Incubate for 2 hours with gentle rocking at room temperature.
Rinse the wells four times with 400 μl of kit washing buffer. Incubate with 100 μl of anti-phospho MET antibody for 1 hour at room temperature.
Rinse the wells four times with 400 μL of kit washing buffer. Incubate with 100 μl of anti-rabbit HRP antibody for 30 minutes at room temperature (except for the wells with chromogen alone).
Rinse the wells four times with 400 μl of kit washing buffer. Introduce 100 μl of chromogen and incubate for 30 minutes in the dark at room temperature.
Stop the reaction with 100 μl of stop solution. Take the reading without delay, at […] 0.1 second on a Wallac Victor plate reader.
Target sequence in this assay (P08581 25-1390): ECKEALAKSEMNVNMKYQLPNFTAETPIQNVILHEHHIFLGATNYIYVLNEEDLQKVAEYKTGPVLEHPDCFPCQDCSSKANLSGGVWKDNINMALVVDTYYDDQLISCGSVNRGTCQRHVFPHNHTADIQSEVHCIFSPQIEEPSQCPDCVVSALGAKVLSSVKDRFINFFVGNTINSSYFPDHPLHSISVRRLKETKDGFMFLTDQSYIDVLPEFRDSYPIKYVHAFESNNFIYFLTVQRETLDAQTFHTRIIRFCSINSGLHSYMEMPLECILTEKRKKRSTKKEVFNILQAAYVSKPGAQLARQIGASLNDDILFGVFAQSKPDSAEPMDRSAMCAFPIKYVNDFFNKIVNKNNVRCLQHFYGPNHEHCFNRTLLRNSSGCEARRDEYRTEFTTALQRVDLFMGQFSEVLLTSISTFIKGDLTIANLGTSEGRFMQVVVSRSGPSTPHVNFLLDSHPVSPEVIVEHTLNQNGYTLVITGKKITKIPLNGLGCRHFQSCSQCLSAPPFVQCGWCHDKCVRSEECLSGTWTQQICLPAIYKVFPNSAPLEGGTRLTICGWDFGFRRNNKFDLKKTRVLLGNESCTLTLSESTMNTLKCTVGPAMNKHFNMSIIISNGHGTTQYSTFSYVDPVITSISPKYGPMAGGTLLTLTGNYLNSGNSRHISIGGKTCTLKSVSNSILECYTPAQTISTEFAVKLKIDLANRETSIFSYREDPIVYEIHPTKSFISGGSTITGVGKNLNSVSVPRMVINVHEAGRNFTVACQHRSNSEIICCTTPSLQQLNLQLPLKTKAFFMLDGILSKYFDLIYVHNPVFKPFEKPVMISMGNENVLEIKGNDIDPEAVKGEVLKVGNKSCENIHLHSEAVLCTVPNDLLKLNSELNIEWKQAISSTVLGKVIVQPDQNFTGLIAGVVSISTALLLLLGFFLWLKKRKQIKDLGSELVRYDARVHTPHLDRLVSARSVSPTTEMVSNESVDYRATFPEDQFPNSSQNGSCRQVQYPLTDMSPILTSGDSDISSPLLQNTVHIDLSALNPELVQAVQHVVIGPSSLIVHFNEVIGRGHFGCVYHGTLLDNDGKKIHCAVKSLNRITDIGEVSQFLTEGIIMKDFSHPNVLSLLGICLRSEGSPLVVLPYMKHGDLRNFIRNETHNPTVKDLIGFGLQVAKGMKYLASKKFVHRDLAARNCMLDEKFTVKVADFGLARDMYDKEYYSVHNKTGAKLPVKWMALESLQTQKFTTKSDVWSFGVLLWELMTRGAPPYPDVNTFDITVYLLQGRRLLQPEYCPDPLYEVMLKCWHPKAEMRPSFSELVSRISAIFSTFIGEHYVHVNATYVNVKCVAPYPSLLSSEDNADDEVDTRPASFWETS

MET [2] = target: T1, MET; test: Test A: HTRF MET test in 96-well format; format: biochemical; design: The recombinant DNA His-Tev-MET (956-1390) in pFastBac; His (N, cleaved yes); TEV cleavage site (N); made in house; host or cells: SF21 insect cells (baculovirus, pFastBac); settings: ATP 10 μM, MET 5 nM
Method: The recombinant DNA His-Tev-MET (956-1390) in pFastBac (invitrogen) is transfected into insect cells and, after several viral amplification steps, the final baculovirus stock is tested for expression of the protein of interest.
For the production of autophosphorylated protein, the preceding fractions are incubated for 1 hour at room temperature after addition of ATP 2 mM, MgCl2 2 mM, and Na3VO4 4 mM. After stopping the reaction with 5 mM of EDTA, the reaction mixture is injected onto a HiPrep desalting column (GE HealthCare) pre-equilibrated with buffer A+Na3VO4 4 mM, and the fractions containing the protein of interest (SDS PAGE analysis) are pooled and stored at −80° C. The degree of phosphorylation is checked by mass spectrometry (LC-MS) and by peptide mapping.
A) Test A: HTRF MET test in 96-well format
In a final volume of 50 μl of enzymatic reaction, MET 5 nM final is incubated in the presence of the test molecule (for a final concentration range of 0.17 nM to 10 μM, DMSO 3% final) in MOPS 10 mM pH 7.4, DTT 1 mM, 0.01% Tween 20 buffer. The reaction is initiated with the substrate solution to obtain final concentrations of poly-(GAT) 1 μg/ml, ATP 10 μM and MgCl2 5 mM. After incubation for 10 minutes at room temperature, the reaction is stopped with a mix of 30 μl to obtain a final solution of Hepes 50 mM pH 7.5, potassium fluoride 500 mM, 0.1% BSA and EDTA 133 mM in the presence of 80 ng of streptavidin 61SAXLB Cis-Bio Int. and 18 ng of anti-phosphotyrosine Mab PT66-Europium Cryptate per well. After incubation for 2 hours at room temperature, the reading is taken at two wavelengths, 620 nm and 665 nm, on a reader for the TRACE/HTRF technique and the percentage of inhibition is calculated from the 665/620 ratios.
Target sequence in this assay (P08581 956-1390): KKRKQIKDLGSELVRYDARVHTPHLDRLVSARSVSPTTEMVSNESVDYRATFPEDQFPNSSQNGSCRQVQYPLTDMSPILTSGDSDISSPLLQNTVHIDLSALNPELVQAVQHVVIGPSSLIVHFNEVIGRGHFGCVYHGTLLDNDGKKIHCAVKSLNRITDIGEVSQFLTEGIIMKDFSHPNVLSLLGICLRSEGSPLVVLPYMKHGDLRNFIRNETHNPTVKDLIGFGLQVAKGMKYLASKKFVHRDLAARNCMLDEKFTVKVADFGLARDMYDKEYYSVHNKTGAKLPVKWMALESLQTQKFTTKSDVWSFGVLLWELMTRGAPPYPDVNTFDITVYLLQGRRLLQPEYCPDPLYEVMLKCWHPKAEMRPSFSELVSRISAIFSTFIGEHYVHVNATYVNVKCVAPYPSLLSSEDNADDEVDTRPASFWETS

[3] = test system: HCT116 cells and MKN45 cells; test: Test C: Measurement of the cell proliferation via a 14C-thymidine pulse; format: cell-based; settings: 14C-thymidine incorporation, 96 hours of treatment; cell line (HCT116 or MKN45) not stated
Method: C) Test C: Measurement of the Cell Proliferation Via a 14C-Thymidine Pulse
The cells are inoculated in Cytostar 96-well plates in 180 μl for 4 hours at 37° C. and 5% CO2: HCT116 cells at a rate of 2500 cells per well in DMEM medium+10% foetal calf serum+1% L-Glutamine and MKN45 cells at a rate of 7500 cells per well in RPMI medium+10% foetal calf serum+1% L-Glutamine. After these 4 hours of incubation, the products are added in 10 μl as a 20-fold concentrated solution according to the dilution method cited for ELISA. The products are tested at 10 concentrations in duplicate from 10 000 nM to 0.3 nM with an increment of 3.
After 72 hours of treatment, add 10 μl of 14C-thymidine at 10 μCi/ml to obtain 0.1 μCi per well. The incorporation of 14C-thymidine is measured on a Micro-Beta machine (Perkin-Elmer) after 24 hours of pulse and 96 hours of treatment.
All the test steps are automated on BIOMEK 2000 or TECAN stations.

| Structure (SMILES) | IC50 (MET [1]) [nM] | IC50 (MET [2]) [nM] | IC50 [3] [nM] |
| --- | --- | --- | --- |
| O=C(NCCN1CCOCC1)Nc1nc2cc(F)c(Sc3nnc4ccc(OC5CCCCC5)nn34)cc2s1 [Example 1, 1-(6-{[6-(Cyclohexyloxy)[1,2,4]triazolo[4,3-b]pyridazin-3-yl]sulfanyl}-5-fluoro-1,3-benzothiazol-2-yl)-3-[2-(morpholin-4-yl)ethyl]urea] | < 100 | < 100 | < 1000 |
| CC(C)(C)OC(=O)Nc1nc2cc(F)c(Sc3nnc4ccc(-c5ccc(F)cc5)nn34)cc2s1 [Example 2, 2-Methylpropan-2-yl (5-fluoro-6-{[6-(4-fluorophenyl)[1,2,4]triazolo[4,3-b]pyridazin-3-yl]sulfanyl}-1,3-benzothiazol-2-yl)carbamate] | < 100 | < 100 | < 1000 |
| Nc1nc2cc(F)c(Sc3nnc4ccc(-c5ccc(F)cc5)nn34)cc2s1 [Example 3, 5-fluoro-6-{[6-(4-fluorophenyl)[1,2,4]triazolo[4,3-b]pyridazin-3-yl]sulfanyl}-1,3-benzothiazol-2-amine] | < 100 | < 100 | < 1000 |
| O=C(NCCN1CCOCC1)Nc1nc2cc(F)c(Sc3nnc4ccc(-c5ccc(F)cc5)nn34)cc2s1 [Example 4, 1-(5-fluoro-6-{[6-(4-fluorophenyl)[1,2,4]triazolo[4,3-b]pyridazin-3-yl]sulfanyl}-1,3-benzothiazol-2-yl)-3-[2-(morpholin-4-yl)ethyl]urea] | < 100 | < 100 | < 1000 |
| O=C(NCCN1CCOCC1)Nc1nc2cc(F)c(Sc3nnc4ccc(NC5CC5)nn34)cc2s1 [Example 5, 1-(6-{[6-(cyclopropylamino)[1,2,4]triazolo[4,3-b]pyridazin-3-yl]sulfanyl}-5-fluoro-1,3-benzothiazol-2-yl)-3-[2-(morpholin-4-yl)ethyl]urea] | < 100 | < 100 | < 1000 |
| O=C(NCCN1CCOCC1)Nc1nc2cc(F)c(Sc3nnc4ccc(NC5CCCCC5)nn34)cc2s1 [Example 6, 1-(6-{[6-(cyclohexylamino)[1,2,4]triazolo[4,3-b]pyridazin-3-yl]sulfanyl}-5-fluoro-1,3-benzothiazol-2-yl)-3-[2-(morpholin-4-yl)ethyl]urea] | < 100 | < 100 | < 1000 |
| CCOc1ccc2nnc(Sc3cc4sc(NC(=O)CN5CCN(C6CC6)CC5)nc4cc3F)n2n1 [Example 7, 2-(4-cyclopropylpiperazin-1-yl)-N-{6-[(6-ethoxy[1,2,4]triazolo[4,3-b]pyridazin-3-yl)sulfanyl]-5-fluoro-1,3-benzothiazol-2-yl}acetamide] | < 100 | < 100 | < 1000 |
| O=C(CN1CCN(C2CC2)CC1)Nc1nc2cc(F)c(Sc3nnc4ccc(OC5CCC5)nn34)cc2s1 [Example 8, N-(6-{[6-(cyclobutyloxy)[1,2,4]triazolo[4,3-b]pyridazin-3-yl]sulfanyl}-5-fluoro-1,3-benzothiazol-2-yl)-2-(4-cyclopropylpiperazin-1-yl)acetamide] | < 100 | < 100 | < 1000 |
| CCOc1ccc2nnc(Sc3cc4sc(NC(=O)CN5CCN(CC)CC5)nc4cc3F)n2n1 [Example 9, N-{6-[(6-ethoxy[1,2,4]triazolo[4,3-b]pyridazin-3-yl)sulfanyl]-5-fluoro-1,3-benzothiazol-2-yl}-2-(4-ethylpiperazin-1-yl)acetamide] | < 100 | < 100 | < 1000 |
| CCN1CCN(CC(=O)Nc2nc3cc(F)c(Sc4nnc5ccc(OC6CCC6)nn45)cc3s2)CC1 [Example 10, N-(6-{[6-(Cyclobutyloxy)[1,2,4]triazolo[4,3-b]pyridazin-3-yl]sulfanyl}-5-fluoro-1,3-benzothiazol-2-yl)-2-(4-ethylpiperazin-1-yl)acetamide] | < 100 | < 100 | < 1000 |
| O=C(CN1CCN(C2CC2)CC1)Nc1nc2cc(F)c(Sc3nnc4ccc(OC5COC5)nn34)cc2s1 [Example 11, 2-(4-cyclopropylpiperazin-1-yl)-N-(5-fluoro-6-{[6-(oxetan-3-yl-oxy)[1,2,4]triazolo[4,3-b]pyridazin-3-yl]sulfanyl}-1,3-benzothiazol-2-yl)acetamide] | < 500 | < 500 |  |
